In brackets after ≈: the same amount, converted by molar mass.
Assays:
[1] = tested on: Enterococcus faecalis; assay: Antibacterial activity against Enterococcus faecalis by microdilution broth method; type: functional
[2] = tested on: Staphylococcus aureus; assay: Antibacterial activity against Staphylococcus aureus by microdilution broth method; type: functional
[3] = target: T1, Farnesyl pyrophosphate synthase (Homo sapiens, UniProt P14324); assay: Inhibition of human FPPS
T1 sequence (P14324 whole entry): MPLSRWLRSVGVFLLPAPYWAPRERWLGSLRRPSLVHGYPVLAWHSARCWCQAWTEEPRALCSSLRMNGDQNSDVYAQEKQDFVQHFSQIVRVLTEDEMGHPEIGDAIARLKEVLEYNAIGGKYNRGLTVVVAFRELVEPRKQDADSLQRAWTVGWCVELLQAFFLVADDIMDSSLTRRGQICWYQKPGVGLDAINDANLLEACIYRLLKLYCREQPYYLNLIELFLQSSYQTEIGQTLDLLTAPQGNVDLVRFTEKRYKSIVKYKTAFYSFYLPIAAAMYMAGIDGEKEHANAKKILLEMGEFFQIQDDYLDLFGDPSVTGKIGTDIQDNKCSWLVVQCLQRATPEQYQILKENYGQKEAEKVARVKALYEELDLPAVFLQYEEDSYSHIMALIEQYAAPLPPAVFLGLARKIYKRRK

[4] = target: T2, Isoprenyl transferase (Streptococcus pneumoniae serotype 4 (strain ATCC BAA-334 / TIGR4), UniProt Q97SR4); assay: Inhibition of Streptococcus pneumoniae UPPS
T2 sequence (Q97SR4 whole entry): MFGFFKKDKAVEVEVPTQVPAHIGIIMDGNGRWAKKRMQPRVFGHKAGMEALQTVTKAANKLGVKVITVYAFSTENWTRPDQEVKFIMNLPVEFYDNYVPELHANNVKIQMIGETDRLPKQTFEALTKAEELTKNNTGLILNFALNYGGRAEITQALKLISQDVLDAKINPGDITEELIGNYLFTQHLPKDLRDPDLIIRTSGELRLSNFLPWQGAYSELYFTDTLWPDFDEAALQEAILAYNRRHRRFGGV

[5] = tested on: Streptococcus pneumoniae; assay: Antibacterial activity against Streptococcus pneumoniae by microdilution broth method; type: functional
[6] = Dissociation constant, pKa of the compound; type: physicochemical

O=C(Nc1ccc(C2CCCCC2)cc1)C1=C(O)C(CCc2ccccc2)NC1=O (centres undefined)
MIC [1]: 4 µg/mL (≈ 9.89 µM) | MIC [2]: 4 µg/mL (≈ 9.89 µM) | IC50 [3]: > 100 µM | IC50 [4]: 0.16 µM | MIC [5]: 1 µg/mL (≈ 2.47 µM) | pKa [6]: 3

O=C(Nc1ccc(C2CCCCC2)cc1)C1=C(O)CN(Cc2ccccc2)C1=O
MIC [1]: 1 µg/mL (≈ 2.56 µM) | MIC [2]: 0.5 µg/mL (≈ 1.28 µM) | IC50 [3]: 8 µM | IC50 [4]: 0.3 µM | pKa [6]: 3

O=C(Nc1ccc(C2CCCCC2)cc1)C1=C(O)C(Cc2ccccc2)NC1=O (centres undefined)
MIC [1]: 8 µg/mL (≈ 20.5 µM) | MIC [2]: 0.5 µg/mL (≈ 1.28 µM) | IC50 [3]: > 100 µM | IC50 [4]: 1.8 µM | MIC [5]: 1 µg/mL (≈ 2.56 µM) | pKa [6]: 3

O=C(Nc1ccc(-c2ccccc2)cc1)C1=C(O)C(Cc2ccccc2)OC1=O (centres undefined)
MIC [1]: 32 µg/mL (≈ 83 µM) | MIC [2]: > 128 µg/mL | IC50 [4]: 1.1 µM | MIC [5]: 4 µg/mL (≈ 10.4 µM)

O=C(Nc1ccc(Nc2ccccc2)cc1)C1=C(O)CC(Cc2ccccc2)NC1=O (centres undefined)
IC50 [4]: 1.1 µM | pKa [6]: 6.5

O=C(Nc1ccc(C(F)(F)F)nc1)C1=C(O)CC(Cc2ccccc2)NC1=O (centres undefined)
MIC [1]: 16 µg/mL (≈ 40.9 µM) | MIC [2]: 16 µg/mL (≈ 40.9 µM) | IC50 [3]: > 50 µM | IC50 [4]: 0.14 µM | MIC [5]: 8 µg/mL (≈ 20.4 µM) | pKa [6]: 6.5

CC(C)CC1CC(O)=C(C(=O)Nc2ccc(C3CCCCC3)cc2)C(=O)N1 (centres undefined)
MIC [1]: 64 µg/mL (≈ 173 µM) | MIC [2]: > 64 µg/mL | IC50 [4]: 0.2 µM | MIC [5]: 4 µg/mL (≈ 10.8 µM) | pKa [6]: 6.5

O=C(NC1CCCCC1)C1=C(O)C(CCc2ccccc2)NC1=O (centres undefined)
MIC [1]: 32 µg/mL (≈ 97.4 µM) | MIC [2]: 32 µg/mL (≈ 97.4 µM) | IC50 [4]: 35 µM | MIC [5]: 64 µg/mL (≈ 195 µM) | pKa [6]: 3

O=C(Nc1ccc(C2CCCCC2)cc1)C1=C(O)C(c2ccccc2)NC1=O (centres undefined)
MIC [1]: 4 µg/mL (≈ 10.6 µM) | MIC [2]: 2 µg/mL (≈ 5.31 µM) | IC50 [3]: > 100 µM | IC50 [4]: 3.5 µM | MIC [5]: 2 µg/mL (≈ 5.31 µM) | pKa [6]: 3

O=C(Nc1ccc(C2CCCCC2)cc1)C1=C(O)C[C@H](c2ccccc2)NC1=O
MIC [1]: 64 µg/mL (≈ 164 µM) | MIC [2]: 4 µg/mL (≈ 10.2 µM) | IC50 [3]: > 50 µM | IC50 [4]: 0.18 µM | MIC [5]: 4 µg/mL (≈ 10.2 µM) | pKa [6]: 6.5

O=C(Nc1ccc(N2CCCCC2)cc1)C1=C(O)CC(Cc2ccccc2)NC1=O (centres undefined)
MIC [1]: 64 µg/mL (≈ 158 µM) | MIC [2]: 64 µg/mL (≈ 158 µM) | IC50 [3]: > 50 µM | IC50 [4]: 0.11 µM | MIC [5]: 64 µg/mL (≈ 158 µM) | pKa [6]: 6.5

O=C(Nc1ccc(C2CCCCC2)cc1)C1=C(O)CC(C2CCCCC2)NC1=O (centres undefined)
MIC [1]: 32 µg/mL (≈ 80.7 µM) | MIC [2]: > 32 µg/mL | IC50 [4]: 0.06 µM | MIC [5]: > 32 µg/mL | pKa [6]: 6.5

CCCCCCOc1ccc(NC(=O)C2=C(O)C(Cc3ccccc3)NC2=O)cc1 (centres undefined)
IC50 [4]: 19 µM | pKa [6]: 3

O=C(NC1CCCCC1)C1=C(O)CC(Cc2ccccc2)NC1=O (centres undefined)
MIC [1]: 64 µg/mL (≈ 195 µM) | MIC [2]: 64 µg/mL (≈ 195 µM) | IC50 [3]: > 50 µM | IC50 [4]: 0.07 µM | MIC [5]: 64 µg/mL (≈ 195 µM) | pKa [6]: 6.5

O=C(Nc1ccc(S(=O)(=O)c2ccccc2)cc1)C1=C(O)CC(Cc2ccccc2)NC1=O (centres undefined)
MIC [1]: 16 µg/mL (≈ 34.6 µM) | MIC [2]: 32 µg/mL (≈ 69.2 µM) | IC50 [4]: 8.5 µM | MIC [5]: 16 µg/mL (≈ 34.6 µM) | pKa [6]: 6.5

O=C(Nc1ccc(Oc2ccccc2)cc1)C1=C(O)CC(Cc2ccccc2)NC1=O (centres undefined)
MIC [1]: 64 µg/mL (≈ 154 µM) | MIC [2]: 16 µg/mL (≈ 38.6 µM) | IC50 [3]: > 50 µM | IC50 [4]: 0.11 µM | MIC [5]: 32 µg/mL (≈ 77.2 µM) | pKa [6]: 6.5

O=C(Nc1ccc(N2CCCCC2)cc1)C1=C(O)C(CCc2ccccc2)NC1=O (centres undefined)
MIC [1]: 8 µg/mL (≈ 19.7 µM) | MIC [2]: 4 µg/mL (≈ 9.86 µM) | IC50 [3]: > 50 µM | IC50 [4]: 0.8 µM | MIC [5]: 4 µg/mL (≈ 9.86 µM) | pKa [6]: 3

O=C(Nc1ccc(Cl)cc1)C1=C(O)C(c2ccccc2)OC1=O (centres undefined)
MIC [1]: > 64 µg/mL | MIC [2]: > 64 µg/mL | IC50 [3]: > 50 µM | IC50 [4]: 24 µM | MIC [5]: 64 µg/mL (≈ 194 µM)

O=C(Nc1ccc(C2CCCCC2)cc1)C1=C(O)CC(Cc2ccccc2)NC1=O (centres undefined)
MIC [1]: 64 µg/mL (≈ 158 µM) | MIC [2]: 32 µg/mL (≈ 79.1 µM) | IC50 [3]: > 50 µM | IC50 [4]: 0.04 µM | MIC [5]: 8 µg/mL (≈ 19.8 µM) | pKa [6]: 6.5

O=C1NCC(O)=C1C(=O)Nc1ccc(C2CCCCC2)cc1
IC50 [4]: 58 µM | pKa [6]: 3

O=C(Nc1ccc(C2CCCCC2)cc1)C1=C(O)CC(c2ccccc2)NC1=O (centres undefined)
MIC [1]: 8 µg/mL (≈ 20.5 µM) | MIC [2]: 4 µg/mL (≈ 10.2 µM) | IC50 [3]: > 50 µM | IC50 [4]: 0.2 µM | MIC [5]: 4 µg/mL (≈ 10.2 µM) | pKa [6]: 6.5

O=C(Nc1ccc(C2CCCCC2)cc1)C1=C(O)C(Cc2ncc[nH]2)NC1=O (centres undefined)
MIC [1]: 16 µg/mL (≈ 42.1 µM) | MIC [2]: 16 µg/mL (≈ 42.1 µM) | IC50 [4]: 4.2 µM | MIC [5]: 8 µg/mL (≈ 21 µM) | pKa [6]: 3

O=C(Nc1ccc(-n2ccnc2)cc1)C1=C(O)CC(Cc2ccccc2)NC1=O (centres undefined)
MIC [1]: 32 µg/mL (≈ 82.4 µM) | MIC [2]: 32 µg/mL (≈ 82.4 µM) | IC50 [4]: 0.63 µM | MIC [5]: 32 µg/mL (≈ 82.4 µM) | pKa [6]: 6.5

COCC1NC(=O)C(C(=O)Nc2ccc(C3CCCCC3)cc2)=C1O (centres undefined)
IC50 [4]: > 50 µM | pKa [6]: 3

O=C(Nc1ccc(C2CCCCC2)cc1)C1=C(O)C[C@@H](c2ccccc2)NC1=O
MIC [1]: 64 µg/mL (≈ 164 µM) | MIC [2]: 4 µg/mL (≈ 10.2 µM) | IC50 [3]: > 100 µM | IC50 [4]: 0.07 µM | MIC [5]: 4 µg/mL (≈ 10.2 µM) | pKa [6]: 6.5

O=C(Nc1ccc(F)cc1)C1=C(O)C(CCc2ccccc2)NC1=O (centres undefined)
MIC [1]: 64 µg/mL (≈ 188 µM) | MIC [2]: 16 µg/mL (≈ 47 µM) | IC50 [4]: 2.5 µM | MIC [5]: 16 µg/mL (≈ 47 µM) | pKa [6]: 3

O=C(Nc1cc(Cl)cc(Cl)c1)C1=C(O)C(c2ccccc2)OC1=O (centres undefined)
MIC [1]: 32 µg/mL (≈ 87.9 µM) | MIC [2]: 32 µg/mL (≈ 87.9 µM) | IC50 [3]: > 50 µM | IC50 [4]: 2 µM | MIC [5]: 4 µg/mL (≈ 11 µM)

CC(C)CC1NC(=O)C(C(=O)Nc2ccc(C3CCCCC3)cc2)=C1O (centres undefined)
MIC [1]: 2 µg/mL (≈ 5.61 µM) | MIC [2]: 0.5 µg/mL (≈ 1.4 µM) | IC50 [3]: > 50 µM | IC50 [4]: 1.3 µM | MIC [5]: 1 µg/mL (≈ 2.81 µM) | pKa [6]: 3

O=C1NCC(Cc2ccccc2)C(O)=C1C(=O)Nc1ccc(-n2ccnc2)cc1 (centres undefined)
MIC [1]: 4 µg/mL (≈ 10.3 µM) | MIC [2]: 64 µg/mL (≈ 165 µM) | IC50 [4]: 8.8 µM | MIC [5]: 32 µg/mL (≈ 82.4 µM)

O=C(Nc1ccc(-c2ccccc2)cc1)C1=C(O)C(CCc2ccccc2)NC1=O (centres undefined)
MIC [1]: 16 µg/mL (≈ 40.2 µM) | MIC [2]: 4 µg/mL (≈ 10 µM) | IC50 [3]: > 100 µM | IC50 [4]: 0.12 µM | MIC [5]: 2 µg/mL (≈ 5.02 µM) | pKa [6]: 3

O=C1NCC(CC2CCCCC2)C(O)=C1C(=O)Nc1ccc(-n2ccnc2)cc1 (centres undefined)
MIC [1]: 4 µg/mL (≈ 10.1 µM) | MIC [2]: 16 µg/mL (≈ 40.6 µM) | IC50 [4]: 2.1 µM | MIC [5]: 16 µg/mL (≈ 40.6 µM)

O=C(Nc1ccc(C2CCCCC2)cc1)C1=C(O)C(Cc2ccccc2)OC1=O (centres undefined)
MIC [1]: 32 µg/mL (≈ 81.7 µM) | MIC [2]: 64 µg/mL (≈ 163 µM) | IC50 [3]: > 50 µM | IC50 [4]: 0.5 µM | MIC [5]: 1 µg/mL (≈ 2.55 µM)

From ChEMBL document CHEMBL1142343, “Design and structure-activity relationships of potent and selective inhibitors of undecaprenyl pyrophosphate synthase (UPPS): tetramic, tetronic acids and dihydropyridin-2-ones” (Bioorg Med Chem Lett, 2008)
